Assay results taken from patent US7202093B2, “Method for labeling phosphorylated peptides, method for selectively adsorbing phosphorylated peptides, complex compounds used in the methods, process for producing the complex compounds, and raw material compounds for the complex compounds” (Kabushiki Kaisha Nard Kenkyusho, priority 2003, dated 2007).
No end group written: not given here.

Columns and labels:
Format in all cases: binding
[1] = test system: α-casein (phosphorylated), β-casein (phosphorylated), pepsin (phosphorylated); test: 10% native-polyacrylamide gel electrophoresis, gel stained and imaged by fluoro image analyzer (Experimental Example 3); details: ten protein samples
Description: First, prepared were gels for electrophoresis, pH buffer for electrophoresis, and a coloring solution for dissolving samples under the same condition as in Experimental Example 1.
Next, 2 μg each of 1: Bovine Serum Albumin, 2: Human Serum Albumin, 3: carbonic anhydrase, 4: β-galactosidase, 5: α-casein (phosphorylated), 6: α-casein (de-phosphorylated), 7: β-casein (phosphorylated), 8: β-casein (de-phosphorylated), 9: pepsin (phosphorylated), and 10: pepsin (de-phosphorylated) was dissolved in the coloring solution to prepare samples. The respective samples were plotted on the gel. Then, a constant electric current of 40 mA was applied until the coloring marker was flowed.
The obtained gel was immersed in a 10 mM Tris-acetate buffer (pH=7.4) containing 1 μM of N,N,N′-tri(2-pyridylmethyl)-N′-[5-N″-(2-N-5-fluoresceinylthioureidoethyl)carbamoyl-2-pyridylmethyl]-1,3-diamopropane-2-ol obtained in Production Example 8-1 and 100 μM zinc acetate for 30 minutes. Thereafter, the gel was taken out from the solution. This gel was washed with 100 mL of 10 mM Tris-acetate buffer (pH=7.4) for 10 minutes twice. Thereafter, a fluorescent image of the gel was photographed by using a fluoro image analyzer FLA-5000 (Fuji Photo Film Co., Ltd.) at an excitation wavelength of 473 nm with use of a fluorescence detecting filter of 510 nm. […]

[2] = test system: inventive complex compound (compound of Production Example 3-1 + zinc acetate) bonded to Streptavidin agarose; test: Selective adsorption of peptides on Streptavidin agarose carrying the inventive zinc complex, fractions quantified by HPLC (Experimental Example 2); details: for isolation/recovery rate of the peptide to the total amount, fraction 1: filtrate of sample in 5.0 mM Tris-acetate buffer pH 7.4; for isolation/recovery rate of the peptide to the total amount, fraction 1 / isolation/recovery rate of the peptide to the total amount, fraction 5 / isolation/recovery rate of the peptide to the total amount, fraction 2 / isolation/recovery rate of the peptide to the total amount, fraction 6 / isolation/recovery rate of the peptide to the total amount, fraction 3 / isolation/recovery rate of the peptide to the total amount, fraction 4: agarose with zinc complex of Production Example 3-1; for isolation/recovery rate of the peptide to the total amount, fraction 5: first filtration with 1.0 mM phosphoric acid-sodium hydroxide buffer pH 7.4, 0.50M NaNO3; for isolation/recovery rate of the peptide to the total amount, fraction 2: first filtration with 5.0 mM Tris-acetate buffer pH 7.4, 0.50M NaNO3; for isolation/recovery rate of the peptide to the total amount, fraction 6: second filtration with 1.0 mM phosphoric acid-sodium hydroxide buffer pH 7.4, 0.50M NaNO3; for isolation/recovery rate of the peptide to the total amount, fraction 3: second filtration with 5.0 mM Tris-acetate buffer pH 7.4, 0.50M NaNO3; for isolation/recovery rate of the peptide to the total amount, fraction 4: third filtration with 5.0 mM Tris-acetate buffer pH 7.4, 0.50M NaNO3
Description: (§1) The suspension (0.3 mL) containing Streptavidin agarose (quantity of the bonded moiety of biotin: 60 to 120 nmol/mL) and a buffer (Sigma-Aldrich Co.) was charged in a centrifugal filter unit (volume: 0.5 mL filter pore diameter: 0.22 μm). The filter unit was subjected to centrifugal separation at centrifugal acceleration of 2,000×g for 15 seconds, followed by filtration of the suspension. 5.0 mM Tris-acetate buffer (pH=7.4, 0.30 mL) was charged in the filter unit, then the filter unit was subjected to centrifugal separation at 2,000×g for 15 seconds and filtration for washing. This centrifugal separation and filtration step for washing was cyclically repeated for 5 times.
To the filter unit, charged was 5.0 mM Tris-acetate buffer (pH=7.4, 0.30 mL) dissolving 120 nmol/mL of the compound obtained in Production Example 3-1 and 500 nmol/mL of zinc acetate. The filter unit was brought to an equilibrium state for 5 minutes, and then, subjected to centrifugal separation at 2,000×g for 15 seconds and filtration. Next, 5.0 mM Tris-acetate buffer (pH=7.4, 0.30 mL) was charged in the filter unit, and subjected to centrifugal separation at 2,000×g for 15 seconds and filtration for washing. This centrifugal separation and filtration step for washing was cyclically repeated for 5 times. Further, 5.0 mM Tris-acetate buffer (pH=7.4, 0.30 mL) dissolving 10 nmol/mL of zinc acetate was charged in the filter unit, and subjected to centrifugal separation at 2,000×g for 15 seconds and filtration for washing. This centrifugal separation and filtration step for washing was cyclically repeated for 5 times.
To the filter unit, charged was 5.0 mM Tris-acetate buffer (pH=7.4, 0.30 mL) dissolving non-phosphorylated peptide p60c (p60c-src peptide 521–533, 14 nmol/mL) and phosphorylated peptide P-p60c (O-phosphoryl p60c-src peptide 521–533, 12 nmol/mL), as samples. The filter unit was brought to an equilibrium state for 5 minutes, and then, subjected to centrifugal separation at 2,000×g for 15 seconds and filtration. The obtained filtrate was taken out as a fraction 1.
Next, 5.0 mM Tris-acetate buffer (pH=7.4, 0.50M NaNO3, 0.30 mL) was charged in the filter unit, and the filter unit was subjected to centrifugal separation at 2,000×g for 15 seconds and filtration for 3 times. The filtrate obtained after the first filtration was taken out as a fraction 2, the filtrate after the second filtration was taken out as a fraction 3, and the filtrate after the third filtration was taken out as a fraction 4.
Furthermore, 1.0 mM buffer containing phosphoric acid-sodium hydroxide (pH=7.4, 0.50M NaNO3, 0.30 mL) was charged in the filter unit, and the filter unit was subjected to centrifugal separation at 2,000×g for 15 seconds and filtration for 2 times. The filtrate obtained after the first filtration was taken out as a fraction 5, and the filtrate after the second filtration was taken out as a fraction 6.
The contents of the peptide in the respective fractions 1 through 6 were quantitatively determined by high performance liquid chromatography (HPLC).
(§2) Analyzing conditions according to HPLC: • column: Capcell Pak C18 type UG80, 4.6 mm (diameter)×150 mm • mobile phase: acetonitrile:water=14:86(v/v), 0.1%(v/v) of trifluoroacetic acid • flow rate: 1 mL/min. • column temperature: 40° C. • detecting method: UV 266 nm • retention time: P-p60c (5.3 min.). p60c (13.4 min.)

[3] = biological target: T1, Streptavidin agarose (Streptomyces avidinii, UniProt P22629); test: Same fractionation on Streptavidin agarose without the inventive complex compound (Comparative Example 1); details: inventive complex compound not included; for isolation/recovery rate of the peptide, fraction 7: step as fraction 1 (sample filtrate, Tris-acetate pH 7.4); for isolation/recovery rate of the peptide, fraction 8: step as fraction 2 (Tris-acetate, 0.50M NaNO3, first); for isolation/recovery rate of the peptide, fraction 9: step as fraction 3 (Tris-acetate, 0.50M NaNO3, second); for isolation/recovery rate of the peptide, fraction 10: step as fraction 4 (Tris-acetate, 0.50M NaNO3, third); for isolation/recovery rate of the peptide, fraction 11: step as fraction 5 (phosphate buffer, first); for isolation/recovery rate of the peptide, fraction 12: step as fraction 6 (phosphate buffer, second)
T1 construct: purchased Sigma-Aldrich Co
Description: as §2
as §1, with “of biotin;” for “of biotin:”, “0.5 mL,” for “0.5 mL”, “at” for “at centrifugal acceleration of”, “suspension. Then,” for “suspension.”, “unit, and” for “unit, then”
A process similar to the process in Experiment Example 2 was conducted with use of samples equivalent to the samples used in Experimental Example 2, using a filter unit (in this Comparative Example, the inventive complex compound was not included). Thus, fractions 7 through 12 were obtained.
HPLC analysis was conducted with respect to the fractions 7 through 12 in a similar manner as Experimental Example 2.

T1 sequence (P22629 25-183): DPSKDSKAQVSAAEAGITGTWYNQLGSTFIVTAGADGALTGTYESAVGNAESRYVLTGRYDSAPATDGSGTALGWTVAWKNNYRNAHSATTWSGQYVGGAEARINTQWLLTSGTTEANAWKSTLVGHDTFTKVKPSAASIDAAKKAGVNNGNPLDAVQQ

Row | Compound | identification (fluorescent labeling) of proteins in the gel ([1]; 1 μM compound + 100 μM zinc acetate, 10 mM Tris-acetate pH 7.4, 30 minutes, excitation 473 nm, FIG. 9 gel A) | dyeing of proteins in the gel by the conventional dyeing process ([1]; same gel, FIG. 9 gel B) | selective adsorption of phosphorylated peptide ([2]; mixed sample of P-p60c and p60c, complex formed with zinc acetate, bonded to Streptavidin agarose) | isolation/recovery rate of the peptide, fraction 7 [3] [%] | isolation/recovery rate of the peptide, fraction 8 [3] [%] | isolation/recovery rate of the peptide, fraction 9 [3] [%] | isolation/recovery rate of the peptide, fraction 10 [3] [%] | isolation/recovery rate of the peptide, fraction 11 [3] [%] | isolation/recovery rate of the peptide, fraction 12 [3] [%] | isolation/recovery rate of the peptide to the total amount, fraction 1 [2] [%] | isolation/recovery rate of the peptide to the total amount, fraction 5 [2] [%] | isolation/recovery rate of the peptide to the total amount, fraction 2 [2] [%] | isolation/recovery rate of the peptide to the total amount, fraction 6 [2] [%] | isolation/recovery rate of the peptide to the total amount, fraction 3 [2] [%] | isolation/recovery rate of the peptide to the total amount, fraction 4 [2] [%]
1 | O=C(NCCNC(=S)Nc1ccc(-c2c3ccc(=O)cc-3oc3cc(O)ccc23)c(C(=O)O)c1)c1ccc(CN(Cc2ccccn2)CC(O)CN(Cc2ccccn2)Cc2ccccn2)nc1 (stereo not drawn) [Production Example 8-1, N,N,N′-Tri(2-pyridylmethyl)-N′-[5-N″-(2-N-5-fluoresceinylthioureidoethyl)carbamoyl-2-pyridylmethyl]-1,3-diaminopropane-2-ol] | only 5: α-casein (phosphorylated), 7: β-casein (phosphorylated) and 9: pepsin (phosphorylated) to all of which the phosphoric acid has been bonded were identified exclusively |  |  |  |  |  |  |  |  |  |  |  |  |  | 
2 | Coomassie brilliant blue |  | all the peptides were dyed |  |  |  |  |  |  |  |  |  |  |  |  | 
3 | N,N,N′-Tri(2-pyridylmethyl)-N′-[5-N″-2-(6-D-biotinamidohexacarboxyamidoethyl)carbamoyl-2-pyridylmethyl]-1,3-diaminopropane-2-ol [Production Example 3-1] |  |  | can adsorb selectively a phosphorylated peptide |  |  |  |  |  |  |  |  |  |  |  | 
4 | P-p60c: phosphorylated peptide P-p60c (O-phosphoryl p60c-src peptide 521–533) (DYFTSTEPQYQPG; also: O-phosphotyrosine, position not given here; UniProt P12931 521-533, looked up, fragment) |  |  |  | 83 | 17 | 0 | 0 | 0 | 0 | 0 | 83 | 0 | 17 | 0 | 0
5 | p60c: non-phosphorylated peptide p60c (p60c-src peptide 521–533) (DYFTSTEPQYQPG; UniProt P12931 521-533, looked up, fragment) |  |  |  | 75 | 20 | 5 | 0 | 0 | 0 | 67 | 0 | 24 | 0 | 9 | 0
